Assay results published in ChEMBL document CHEMBL1142439 (Bioorg Med Chem, 2008).
Active and inactive are the calls of the source. The calls are words filed in the database; no cut-off is given here.

Experiments:
[1] = target: D(2) dopamine receptor (Homo sapiens, UniProt P14416); test: Agonist activity at human dopamine D2 receptor expressed in CHO cells assessed as inhibition of forskolin-stimulated cAMP production; format: functional, cell-based
[2] = target: D(1A) dopamine receptor (Homo sapiens, UniProt P21728); test: Agonist activity at human recombinant dopamine D1 receptor expressed in CHO cells assessed as stimulation of cAMP production; format: functional, cell-based
[3] = system: Rattus norvegicus; test: Decrease in dopamine release in Wistar rat striatal at 1 nmol/kg, sc after 90 mins; format: functional; set-up: scale not given: the % may be the effect or the level left
[4] = system: Rattus norvegicus; test: Decrease in dopamine release in Wistar rat striatal at 100 nmol/kg, po after 45 mins; format: functional; set-up: scale not given: the % may be the effect or the level left
[5] = system: Rattus norvegicus; test: Induction of penile grooming in Wistar rat at 10 nmol/kg, sc; format: functional, organism-based
[6] = system: Rattus norvegicus; test: Induction of rearing grooming in Wistar rat at 10 nmol/kg, sc; format: functional, organism-based
[7] = system: Rattus norvegicus; test: Induction of sniffing in Wistar rat at 10 nmol/kg, sc; format: functional, organism-based
[8] = system: Rattus norvegicus; test: Induction of locomotor activity in Wistar rat at 10 nmol/kg, sc; format: functional, organism-based
[9] = system: Rattus norvegicus; test: Decrease in dopamine release in Wistar rat striatal at 1 nmol/kg, sc after 6 hrs; format: functional; set-up: scale not given: the % may be the effect or the level left
[10] = system: Rattus norvegicus; test: Decrease in dopamine release in Wistar rat striatal at 10 nmol/kg, sc after 90 mins; format: functional; set-up: scale not given: the % may be the effect or the level left
[11] = system: Rattus norvegicus; test: Induction of yawning in Wistar rat at 10 nmol/kg, sc; format: functional, organism-based

D(2) dopamine receptor, sequence (P14416 whole entry): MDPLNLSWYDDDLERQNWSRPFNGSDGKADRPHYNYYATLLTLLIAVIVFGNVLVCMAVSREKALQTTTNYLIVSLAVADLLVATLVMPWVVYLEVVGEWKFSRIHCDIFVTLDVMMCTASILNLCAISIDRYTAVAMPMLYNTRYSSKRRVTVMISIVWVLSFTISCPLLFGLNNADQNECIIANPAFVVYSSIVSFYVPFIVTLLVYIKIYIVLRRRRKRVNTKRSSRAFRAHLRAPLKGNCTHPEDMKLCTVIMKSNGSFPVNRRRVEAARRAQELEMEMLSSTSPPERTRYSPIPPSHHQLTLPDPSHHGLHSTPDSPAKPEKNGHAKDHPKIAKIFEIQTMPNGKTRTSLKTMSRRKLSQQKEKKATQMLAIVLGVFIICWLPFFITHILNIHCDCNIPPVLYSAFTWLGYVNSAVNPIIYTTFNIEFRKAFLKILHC
D(1A) dopamine receptor, sequence (P21728 whole entry): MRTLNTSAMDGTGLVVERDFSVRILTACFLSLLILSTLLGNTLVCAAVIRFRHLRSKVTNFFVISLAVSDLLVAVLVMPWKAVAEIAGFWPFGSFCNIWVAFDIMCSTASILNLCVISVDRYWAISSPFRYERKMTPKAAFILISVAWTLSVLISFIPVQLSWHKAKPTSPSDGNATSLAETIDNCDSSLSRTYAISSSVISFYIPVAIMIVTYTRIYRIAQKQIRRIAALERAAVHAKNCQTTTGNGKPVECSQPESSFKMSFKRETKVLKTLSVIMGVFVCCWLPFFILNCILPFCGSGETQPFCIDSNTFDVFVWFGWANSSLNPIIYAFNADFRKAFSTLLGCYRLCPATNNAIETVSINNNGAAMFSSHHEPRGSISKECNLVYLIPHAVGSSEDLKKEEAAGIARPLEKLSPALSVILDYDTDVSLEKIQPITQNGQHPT

How did the EC50 [1] turn out when `CCCN1CCC[C@@H]2Cc3c(ccc(O)c3O)C[C@H]21` was run?
Its EC50 is 0.65 nM.

What about the EC50 [2] of the same compound?
The EC50 was 25 nM.

What about the Activity [3] of the same compound?
Its Activity is 20%.

What about the Activity [4] of the same compound?
Its Activity is 40%.

What about the Activity [5] of the same compound?
Its Activity is “Active”.

What about the Activity [6] of the same compound?
The Activity was “Active”.

What about the Activity [7] of the same compound?
The Activity was “Active”.

And the Activity [8]?
The Activity was “Active”.

And the Activity [9]?
Its Activity is 30%.

And the Activity [10]?
Its Activity is 30%.

And the Activity [11]?
The Activity was “Active”.
